Laboratory results from patent US12366579B2, “Sulfur-heterocycle exchange chemistry and uses thereof” (University of Virginia Patent Foundation, priority 2019, dated 2025).

Assays:
[1] = system: HEK293T, Jurkat cells; assay: Live cell chemical proteomic profiling with SuTEx probes; assay type: cell-based, human; conditions: 100 μM, 2 hr, 37° C.; membrane and soluble fractions; both probes
Protocol: Cells grown to ˜90% confluency in 10 cm plates were treated with DMSO vehicle or sulfonyl-triazole probe (10 μL of 1000×DMSO stock) in serum-free media for the indicated concentrations and times at 37° C. with 5% CO2. After treatment, cells were washed with cold PBS twice before harvesting and preparation for gel-based chemical proteomic evaluation as described above. For LC-MS studies, protein concentrations were normalized to 2.3 mg/mL and 432 μL (for 1 mg final protein amount) were used for sample preparation as detailed below.
Proteomes were diluted to 2.3 mg/mL in PBS and sample aliquots (432 μL) were treated with sulfonyl-triazole or -fluoride probes at the indicated concentrations (5 μL, 100× stock in DMSO), mixed gently and incubated for 1 h at room temperature. Probe-modified proteomes were subjected to CuAAC conjugation to desthiobiotin-PEG3-azide (10 μL of 10 mM stock in DMSO; final concentration of 200 μM) using TCEP (10 μL of fresh 50 mM stock in water; 1 mM final concentration), TBTA ligand (33 μL of a 1.7 mM 4:1 t-butanol/DMSO stock, 100 μM final concentration), and CuSO4 (10 μL of 50 mM stock, 1 mM final concentration). Samples were mixed by vortexing and then incubated for 1 h at room temperature. Excess reagents were removed by chloroform-methanol extraction as previously described^51. […]

[2] = system: HEK293T soluble proteomes; assay: LC-MS chemical proteomics of probe-modified sites in cell proteomes; assay type: binding, human

## C#CCNC(=O)c1ccc(S(=O)(=O)n2cncn2)cc1 [HHS-475, 4-((1H-1,2,4-Triazol-1-yl)sulfonyl)-N-(prop-2-yn-1-yl)benzamide]
[1]
  distinct tyrosine sites measured in live cell studies, in total per cell line: ~3,500 sites
[2]; FIG. 4D
  unique-modified tyrosine sites among 1,2,4-SuTEx probes: 391 sites
[2]; LC-MS chemical proteomics, FIG. 4A
  tyrosine specificity, Y/K ratio of modified sites: 2.8
